Experimental data: BindingDB's records for doi:10.1016/j.bmc.2012.11.004 (Romanian Academy, 2013)

Legend:
Carbonic anhydrase 2 = Carbonic anhydrase 2 (Homo sapiens, UniProt P00918); experiment: Inhibition of human carbonic anhydrase-2
Carbonic anhydrase 12 = Carbonic anhydrase 12 (Homo sapiens, UniProt O43570); experiment: Inhibition of human carbonic anhydrase-12
Carbonic anhydrase 1 = Carbonic anhydrase 1 (Homo sapiens, UniProt P00915); experiment: Inhibition of human carbonic anhydrase-1
Sequence of Carbonic anhydrase 1 (P00915 whole entry): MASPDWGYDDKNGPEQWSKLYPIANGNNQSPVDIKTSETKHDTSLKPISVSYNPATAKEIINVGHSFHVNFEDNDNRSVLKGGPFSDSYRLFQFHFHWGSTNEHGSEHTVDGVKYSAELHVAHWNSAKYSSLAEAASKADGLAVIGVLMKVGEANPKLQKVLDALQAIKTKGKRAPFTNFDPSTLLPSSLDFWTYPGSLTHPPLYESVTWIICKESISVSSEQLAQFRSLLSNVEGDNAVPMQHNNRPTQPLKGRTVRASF

Sequence of Carbonic anhydrase 12 (O43570 whole entry): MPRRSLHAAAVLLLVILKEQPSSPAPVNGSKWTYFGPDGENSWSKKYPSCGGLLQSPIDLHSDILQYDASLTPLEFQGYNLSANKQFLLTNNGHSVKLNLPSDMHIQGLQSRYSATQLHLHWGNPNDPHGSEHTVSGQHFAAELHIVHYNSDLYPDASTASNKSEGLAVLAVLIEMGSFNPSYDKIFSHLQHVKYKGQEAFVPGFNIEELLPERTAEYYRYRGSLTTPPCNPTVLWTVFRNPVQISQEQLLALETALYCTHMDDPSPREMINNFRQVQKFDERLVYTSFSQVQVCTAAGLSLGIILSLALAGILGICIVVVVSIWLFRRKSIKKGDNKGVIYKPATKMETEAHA

| Ki (Carbonic anhydrase 2) [nM] | Ki (Carbonic anhydrase 12) [nM] | Ki (Carbonic anhydrase 1) [nM] | Structure (SMILES) |
| --- | --- | --- | --- |
| 342 | 34 | 3420 | COc1ccc(NC(=O)Nc2ccc(NS(N)(=O)=O)cc2)c(C)c1 |
| 342 | – | 1710 | CCCCOc1ccc(NC(=O)Nc2ccc(NS(N)(=O)=O)cc2)cc1 |
| 682 | – | – | CC(C)c1ccccc1NC(=O)Nc1ccc(NS(N)(=O)=O)cc1 |
| 171 | 9 | 2710 | NS(=O)(=O)Nc1ccc(NC(=O)NCCc2ccccc2)cc1 |
| 430 | – | – | COc1ccc(OC)c(NC(=O)Nc2ccc(NS(N)(=O)=O)cc2)c1 |
| 858 | 216 | – | NS(=O)(=O)Nc1ccc(NC(=O)Nc2ccccc2-c2ccccc2)cc1 |
| 430 | 27 | – | CC(NC(=O)Nc1ccc(NS(N)(=O)=O)cc1)c1cccc2ccccc12 (stereo not given) |
| 682 | – | – | Cc1cc(C)cc(NC(=O)Nc2ccc(NS(N)(=O)=O)cc2)c1 |
| 430 | 27 | – | COc1ccc(C)cc1NC(=O)Nc1ccc(NS(N)(=O)=O)cc1 |
| 430 | 43 | – | NS(=O)(=O)Oc1ccc(NC(=O)NC23CC4CC(CC(C4)C2)C3)cc1 |
| 430 | 9 | 2150 | NS(=O)(=O)Nc1ccc(NC(=O)Nc2cccc([N+](=O)[O-])c2)cc1 |
| 342 | 27 | 3420 | NS(=O)(=O)Nc1ccc(NC(=O)Nc2ccc(Cl)cc2)cc1 |
| – | 17 | 4300 | Cc1cc(Cl)ccc1NC(=O)Nc1ccc(NS(N)(=O)=O)cc1 |
| 342 | 108 | 4300 | NS(=O)(=O)Nc1ccc(NC(=O)NC2CCCCC2)cc1 |
| 136 | 9 | 2710 | NS(=O)(=O)Nc1ccc(NC(=O)NCc2ccccc2)cc1 |
| – | 11 | 6660 | NS(=O)(=O)Nc1ccc(NC(=O)NCc2ccco2)cc1 |
